# From patent publication US9630922B2, “3-spiro-7-hydroxamic acid tetralins as HDAC inhibitors” (Forma Therapeutics, Inc., priority 2015, dated 2017)
# Target: T1, HDAC6 (Homo sapiens, UniProt Q9UBN7)
# T1 construct: Full length human recombinant HDAC6 protein was expressed in baculoviral system; made in house; host or cells: baculoviral system
# T1 sequence (Q9UBN7 1-1215): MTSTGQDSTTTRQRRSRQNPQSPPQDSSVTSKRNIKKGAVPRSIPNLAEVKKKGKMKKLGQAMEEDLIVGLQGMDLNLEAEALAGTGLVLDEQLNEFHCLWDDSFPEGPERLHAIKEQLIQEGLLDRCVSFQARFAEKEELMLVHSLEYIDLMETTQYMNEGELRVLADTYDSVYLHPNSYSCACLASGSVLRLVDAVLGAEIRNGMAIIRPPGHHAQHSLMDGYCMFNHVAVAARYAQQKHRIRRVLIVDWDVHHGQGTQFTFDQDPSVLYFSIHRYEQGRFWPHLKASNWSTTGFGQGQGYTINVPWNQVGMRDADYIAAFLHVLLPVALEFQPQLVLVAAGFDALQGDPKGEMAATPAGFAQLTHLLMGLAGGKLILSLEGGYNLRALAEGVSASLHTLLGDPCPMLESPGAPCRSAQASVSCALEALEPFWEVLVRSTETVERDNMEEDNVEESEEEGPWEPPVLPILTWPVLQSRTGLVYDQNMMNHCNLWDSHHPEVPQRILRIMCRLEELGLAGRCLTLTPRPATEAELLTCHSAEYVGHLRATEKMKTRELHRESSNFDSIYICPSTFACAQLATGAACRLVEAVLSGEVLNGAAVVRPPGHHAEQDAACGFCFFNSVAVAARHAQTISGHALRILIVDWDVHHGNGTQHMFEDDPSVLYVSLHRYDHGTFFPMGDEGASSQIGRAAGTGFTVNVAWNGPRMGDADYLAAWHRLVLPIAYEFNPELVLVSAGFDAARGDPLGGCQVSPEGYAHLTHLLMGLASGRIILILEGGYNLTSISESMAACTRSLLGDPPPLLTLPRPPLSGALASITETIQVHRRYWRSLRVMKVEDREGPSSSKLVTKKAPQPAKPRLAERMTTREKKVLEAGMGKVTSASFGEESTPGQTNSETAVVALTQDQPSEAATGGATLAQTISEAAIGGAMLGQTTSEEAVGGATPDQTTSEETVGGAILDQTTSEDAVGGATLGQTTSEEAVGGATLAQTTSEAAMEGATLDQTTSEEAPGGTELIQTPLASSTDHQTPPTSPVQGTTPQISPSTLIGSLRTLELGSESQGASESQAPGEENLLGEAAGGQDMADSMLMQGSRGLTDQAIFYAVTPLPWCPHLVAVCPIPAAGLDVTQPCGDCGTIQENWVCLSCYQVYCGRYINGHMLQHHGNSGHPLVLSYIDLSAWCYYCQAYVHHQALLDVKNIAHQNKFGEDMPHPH
# Assay: In vitro Histone Deacetylase Assay (enzymatic HDAC6 electrophoretic mobility shift assay)
# Format: biochemical
# Conditions: full length human recombinant HDAC6, 1 nM enzyme, 2 μM peptide substrate RHKK(Ac)-NH2, 25° C.; read-out: HDAC6 activity range
# Description: The enzymatic HDAC6 assay was performed using electrophoretic mobility shift assay. Full length human recombinant HDAC6 protein was expressed in baculoviral system and purified by affinity chromatography. The enzymatic reactions were assembled in 384 well plates in a total volume of 25 μL in a reaction buffer composing: 100 mM HEPES, pH7.5, 25 mM KCl, 0.1% bovine serum albumin, 0.01% Triton X-100, 1% DMSO (from compounds) 2 μM of the fluorescently labeled peptide substrate and enzyme. The enzyme was added at a final concentration of 1 nM. The peptide substrate RHKK(Ac)—NH2 was used. The compounds were tested at 12 concentrations spaced by 3× dilution intervals. Negative control samples (0%-inhibition in the absence of inhibitor) and positive control samples (100%-inhibition) were assembled in replicates of four in each assay plate. The reactions were incubated at 25° C. and quenched by the addition of 45 μL of termination buffer (100 mM HEPES, pH 7.5, 0.01% Triton X-100, 0.05% SDS).
# The terminated assay plates were analyzed on LabChip® 3000 microfluidic electrophoresis instrument (Perkin Elmer/Caliper Life Sciences). The fluorescence intensity of the electrophoretically separated de-acetylated product and substrate peptide was measured. Activity in each sample was determined as the product to sum ratio (PSR): P/(S+P), where P is the peak height of the product peptide and S is the peak height of the substrate peptide. Percent inhibition (Pinh) is determined using the following equation:
# Pinh=(PSR0%−PSRinh)/(PSR0%−PSR100%)*100, where PSRinh is the product sum ratio in the presence of inhibitor, PSR0% is the average product sum ration in the absence of inhibitor and PSR100% is the average product sum ratio in 100%-inhibition control samples. The IC50 values of inhibitors were determined by fitting the %-inhibition curves with 4 parameter dose-response model using XLfit 4 software.
# As set forth in Table-31, below, IC50 values are defined as follows: IC50≦0.1 μM (+++); IC50>0.1 μM and ≦0.5 μM (++); IC50>0.5 μM (+).
row,IC50,Compound
1,≤ 0.1 µM,"CCN1CC2(CCc3cc(C(=O)NO)ccc3C2)CC1=O (single isomer, unassigned) [Compound I-206]"
2,≤ 0.1 µM,"CC(C)CN1CC2(CCc3cc(C(=O)NO)ccc3C2)CC1=O (single isomer, unassigned) [Compound I-207]"
3,≤ 0.1 µM,"CC(C)N1CC2(CCc3cc(C(=O)NO)ccc3C2)CC1=O (single isomer, unassigned) [Compound I-208]"
4,≤ 0.1 µM,"O=C(NO)c1ccc2c(c1)CCC1(CC(=O)N(C3CC3)C1)C2 (single isomer, unassigned) [Compound I-209]"
5,≤ 0.1 µM,"O=C(NO)c1ccc2c(c1)CCC1(CC(=O)N(CC3CCC3)C1)C2 (single isomer, unassigned) [Compound I-210]"
6,≤ 0.1 µM,"CCN1CC2(CCc3cc(C(=O)NO)ccc3C2)CC1=O (single isomer, unassigned) [Compound I-211]"
7,≤ 0.1 µM,"CC(C)CN1CC2(CCc3cc(C(=O)NO)ccc3C2)CC1=O (single isomer, unassigned) [Compound I-212]"
8,≤ 0.1 µM,"CC(C)N1CC2(CCc3cc(C(=O)NO)ccc3C2)CC1=O (single isomer, unassigned) [Compound I-213]"
9,≤ 0.1 µM,"O=C(NO)c1ccc2c(c1)CCC1(CC(=O)N(C3CC3)C1)C2 (single isomer, unassigned) [Compound I-214]"
10,≤ 0.1 µM,"O=C(NO)c1ccc2c(c1)CCC1(CC(=O)N(CC3COC3)C1)C2 (single isomer, unassigned) [Compound I-215]"
11,≤ 0.1 µM,"O=C(NO)c1ccc2c(c1)CCC1(CC(=O)N(Cc3ccccc3)C1)C2 (single isomer, unassigned) [Compound I-216]"
12,0.1 to 0.5 µM,"O=C(NO)c1ccc2c(c1)CCC1(CC(=O)N(CC3COC3)C1)C2 (single isomer, unassigned) [Compound I-217]"
13,≤ 0.1 µM,"O=C(NO)c1ccc2c(c1)CCC1(CC(=O)N(Cc3ccccc3)C1)C2 (single isomer, unassigned) [Compound I-218]"
14,≤ 0.1 µM,"COCCCN1CC2(CCc3cc(C(=O)NO)ccc3C2)CC1=O (single isomer, unassigned) [Compound I-219]"
15,≤ 0.1 µM,"O=C(NO)c1ccc2c(c1)CCC1(CC(=O)N(CC(F)(F)F)C1)C2 (single isomer, unassigned) [Compound I-220]"
16,≤ 0.1 µM,"O=C(NO)c1ccc2c(c1)CCC1(CC(=O)N(c3cccnc3)C1)C2 (single isomer, unassigned) [Compound I-221]"
17,≤ 0.1 µM,"COCCCN1CC2(CCc3cc(C(=O)NO)ccc3C2)CC1=O (single isomer, unassigned) [Compound I-222]"

row,IC50,Compound
1,≤ 0.1 µM,"O=C(NO)c1ccc2c(c1)CCC1(CC(=O)N(CC(F)(F)F)C1)C2 (single isomer, unassigned) [Compound I-223]"
2,≤ 0.1 µM,"O=C(NO)c1ccc2c(c1)CCC1(CC(=O)N(c3cccnc3)C1)C2 (single isomer, unassigned) [Compound I-224]"
3,≤ 0.1 µM,"Cc1ccccc1CN1CC2(CCc3cc(C(=O)NO)ccc3C2)CC1=O (single isomer, unassigned) [Compound I-225]"
4,≤ 0.1 µM,"O=C(NO)c1ccc2c(c1)CC[C@]1(CC(=O)N(Cc3cccnc3)C1)C2 (single isomer, unassigned) [Compound I-226]"
5,≤ 0.1 µM,"O=C(NO)c1ccc2c(c1)CCC1(CC(=O)N(c3ccc(F)cc3)C1)C2 (single isomer, unassigned) [Compound I-227]"
6,≤ 0.1 µM,"O=C(NO)c1ccc2c(c1)CCC1(CCN(Cc3nc4ccccc4[nH]3)C1)C2 (stereo not shown) [Compound I-1, 1′-((1H-benzo[d]imidazol-2-yl)methyl)-N-hydroxy-3,4-dihydro-1H-spiro[naphthalene-2,3′-pyrrolidine]-6-carboxamide]"
7,0.1 to 0.5 µM,"COc1ccc(CCN2CCC3(CCc4cc(C(=O)NO)ccc4C3)C2)cc1 (stereo not shown) [Compound I-2, N-hydroxy-1′-(4-methoxyphenethyl)-3,4-dihydro-1H-spiro[naphthalene-2,3′-pyrrolidine]-6-carboxamide]"
8,0.1 to 0.5 µM,"COc1ccc(CN2CCC3(CCc4cc(C(=O)NO)ccc4C3)C2)cc1 (stereo not shown) [Compound I-3, N-hydroxy-1′-(4-methoxybenzyl)-3,4-dihydro-1H-spiro[naphthalene-2,3′-pyrrolidine]-6-carboxamide]"
9,≤ 0.1 µM,"COc1ccc(CCN2CCC3(CCc4cc(C(=O)NO)ccc4C3)C2=O)cc1 (stereo not shown) [Compound I-4, N-hydroxy-1′-(4-methoxyphenethyl)-2′-oxo-3,4-dihydro-1H-spiro[naphthalene-2,3′-pyrrolidine]-6-carboxamide]"
10,≤ 0.1 µM,"O=C(NO)c1ccc2c(c1)CCC1(CCN(c3nc4ccccc4[nH]3)C1=O)C2 (stereo not shown) [Compound I-5, 1′-(1H-benzo[d]imidazol-2-yl)-N-hydroxy-2′-oxo-3,4-dihydro-1H-spiro[naphthalene-2,3′-pyrrolidine]-6-carboxamide]"
11,≤ 0.1 µM,"O=C(NO)c1ccc2c(c1)CCC1(CCN(Cc3ccc(Cl)c(Cl)c3)C1=O)C2 (stereo not shown) [Compound I-6, 1′-(3,4-dichlorobenzyl)-N-hydroxy-2′-oxo-3,4-dihydro-1H-spiro[naphthalene-2,3′-pyrrolidine]-6-carboxamide]"
12,0.1 to 0.5 µM,"O=C(NO)c1ccc2c(c1)CCC1(CCN(CC3CCCCC3)C1=O)C2 (stereo not shown) [Compound I-7, 1′-(cyclohexylmethyl)-N-hydroxy-2′-oxo-3,4-dihydro-1H-spiro[naphthalene-2,3′-pyrrolidine]-6-carboxamide]"
13,0.1 to 0.5 µM,"Cc1ccc(CN2CCC3(CCc4cc(C(=O)NO)ccc4C3)C2=O)cc1 (stereo not shown) [Compound I-8, N-hydroxy-1′-(4-methylbenzyl)-2′-oxo-3,4-dihydro-1H-spiro[naphthalene-2,3′-pyrrolidine]-6-carboxamide]"
14,0.1 to 0.5 µM,"CN(C)CCCN1CCC2(CCc3cc(C(=O)NO)ccc3C2)C1=O (stereo not shown) [Compound I-9, 1′-(3-(dimethylamino)propyl)-N-hydroxy-2′-oxo-3,4-dihydro-1H-spiro[naphthalene-2,3′-pyrrolidine]-6-carboxamide]"
15,≤ 0.1 µM,"O=C(NO)c1ccc2c(c1)CC[C@]1(CCN(c3cccnc3)C1=O)C2 [Compound I-10, (R)-N-hydroxy-2′-oxo-1′-(pyridin-3-yl)-3,4-dihydro-1H-spiro[naphthalene-2,3′-pyrrolidine]-6-carboxamide]"
16,≤ 0.1 µM,"O=C(NO)c1ccc2c(c1)CC[C@@]1(CCN(c3cccnc3)C1=O)C2 [Compound I-11, (S)-N-hydroxy-2′-oxo-1′-(pyridin-3-yl)-3,4-dihydro-1H-spiro[naphthalene-2,3′-pyrrolidine]-6-carboxamide]"
17,0.1 to 0.5 µM,"COCCn1c(N2CC[C@]3(CCc4cc(C(=O)NO)ccc4C3)C2=O)nc2ccccc21 [Compound I-12, (R)-N-hydroxy-1′-(1-(2-methoxyethyl)-1H-benzo[d]imidazol-2-yl)-2′-oxo-3,4-dihydro-1H-spiro[naphthalene-2,3′-pyrrolidine]-6-carboxamide]"
